The results in this text go back to patent publication US10081635B2, “Substituted N-(pyrrolidine-3-yl)-7H-pyrrolo[2,3-D]pyrimidine-4-amine as janus kinase inhibitor” (YANG JI CHEMICAL CO., LTD., priority 2014, dated 2018).

Assay type in all cases: biochemical
The target of assay [1] is Human JAK1 (Homo sapiens (Human), UniProt P23458). Put plainly: In vitro kinase inhibition test, JAK1 (33P-ATP filter scintillation). The note with it: compound at 1 uM; read-out: JAK1 kinase-phosphorylation inhibitory level (% inhibition). As for the experimental part: (§1) 1. In Vitro Kinase Inhibition Test
Human JAK1, sequence (P23458 whole entry): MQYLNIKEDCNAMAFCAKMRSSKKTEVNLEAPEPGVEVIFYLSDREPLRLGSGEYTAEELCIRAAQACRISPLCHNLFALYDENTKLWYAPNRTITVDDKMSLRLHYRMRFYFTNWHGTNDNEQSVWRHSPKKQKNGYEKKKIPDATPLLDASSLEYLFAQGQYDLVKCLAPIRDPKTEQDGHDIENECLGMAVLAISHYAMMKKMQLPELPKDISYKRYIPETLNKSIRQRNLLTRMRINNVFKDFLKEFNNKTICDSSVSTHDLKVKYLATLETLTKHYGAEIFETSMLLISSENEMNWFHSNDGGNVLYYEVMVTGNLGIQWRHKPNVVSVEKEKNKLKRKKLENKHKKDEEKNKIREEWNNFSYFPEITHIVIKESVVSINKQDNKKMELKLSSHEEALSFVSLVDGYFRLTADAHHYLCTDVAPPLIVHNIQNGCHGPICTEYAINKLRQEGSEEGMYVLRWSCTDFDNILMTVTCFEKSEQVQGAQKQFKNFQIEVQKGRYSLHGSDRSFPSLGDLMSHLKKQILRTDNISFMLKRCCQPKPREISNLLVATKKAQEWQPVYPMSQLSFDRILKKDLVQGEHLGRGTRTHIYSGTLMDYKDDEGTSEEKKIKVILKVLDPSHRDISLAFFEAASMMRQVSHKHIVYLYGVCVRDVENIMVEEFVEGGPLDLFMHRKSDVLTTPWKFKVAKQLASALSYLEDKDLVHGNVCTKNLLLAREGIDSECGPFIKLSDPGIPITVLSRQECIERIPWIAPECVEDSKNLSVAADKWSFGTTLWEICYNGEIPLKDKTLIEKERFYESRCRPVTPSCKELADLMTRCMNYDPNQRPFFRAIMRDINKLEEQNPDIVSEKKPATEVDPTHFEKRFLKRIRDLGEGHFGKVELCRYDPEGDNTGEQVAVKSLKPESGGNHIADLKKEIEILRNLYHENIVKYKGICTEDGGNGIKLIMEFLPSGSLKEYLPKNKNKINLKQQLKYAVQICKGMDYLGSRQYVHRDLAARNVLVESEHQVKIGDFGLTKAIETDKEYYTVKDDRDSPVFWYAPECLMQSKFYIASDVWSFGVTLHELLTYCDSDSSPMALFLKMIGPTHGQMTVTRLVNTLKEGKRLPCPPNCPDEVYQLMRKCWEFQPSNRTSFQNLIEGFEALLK
(§2) Kinases used were human-derived JAK1, JAK2, JAK3, and TYK2 (Millipore, Germany). Each of these kinases was diluted with a suitable buffer solution as described below, and then mixed with reagents.
Tris(hydroxymethyl)aminomethane (TRIS) and ethylenediaminetetraacetic acid (EDTA) were dissolved in distilled water at a concentration of 20 mM and 0.2 mM, respectively, and 100 uL of β-mercaptoethanol, 10 uL of Brij-35™, and 5 mL of glycerol, each per 100 mL of the solution, were added to the solution, thereby preparing a JAK1 dilution buffer solution.
(§3) Each compound was dissolved in a 100% DMSO solution at a 50 uM concentration. This solution was reacted with reagents in wells on a 96-well plate to reach a final concentration of 1 uM. Detailed experimental methods for each kinase are described below.
After reaction for about 40 minutes at room temperature, the reaction was stopped by adding 5 uL of a 3% (v/v) phosphoric acid solution. […] The methanol drying is a drying process using an azeotropic effect, wherein methanol is added into an aqueous solution for drying.
(§4) In Tables 5 and 6, the numbers in the “Example” column, which are identification numbers of the examples, indicate the compounds synthesized in the corresponding examples, the values in the “JAK1”, “JAK2”, “JAK3”, and “TYK2” columns represent kinase-phosphorylation inhibitory levels as a percentage (%) of the compounds synthesized in the corresponding examples at a 1 uM concentration. In Tables 5 and 6, negative values substantially indicate no inhibitory effect.
(§5) The inhibitory levels (% inhibition) represent a percentage of reduction in phosphorylation activity in each test group with respect to the phosphorylation activity of a corresponding kinase in a negative control group lacking any of the compounds synthesized in the examples. % inhibition=[(Scintillation value of Test compound non-treatment group−Scintillation value of Test compound treatment group)/(Scintillation value of Test compound non-treatment group)]×100

Assay [2] deals with Human JAK2 (Homo sapiens (Human), UniProt O60674). The experiment in a line: In vitro kinase inhibition test, JAK2 (33P-ATP filter scintillation). The conditions noted are these: compound at 1 uM; read-out: JAK2 kinase-phosphorylation inhibitory level (% inhibition). As for the experimental part:
as §1, §2
(§6) 3-morpholinopropane-1-sulfonic acid (MOPS) and EDTA were dissolved in distilled water at a concentration of 20 mM and 1 mM, respectively, and 100 uL of β-mercaptoethanol, 10 uL of Brij-35™, 5 mL of glycerol, and 100 mg of bovine serum albumin (BSA), each per 100 mL of the solution, were added to the solution, thereby preparing a JAK2, JAK3, and TYK2 dilution buffer solution.
as §3
(§7) After reaction for about 40 minutes at room temperature, the reaction was stopped by adding 5 uL of a 3% (v/v) phosphoric acid solution.
as §4, §5

The target in assay [3] is Human TYK2 (Homo sapiens (Human), UniProt P29597). The experiment in a line: In vitro kinase inhibition test, TYK2 (33P-ATP filter scintillation). The note with it: compound at 1 uM; read-out: TYK2 kinase-phosphorylation inhibitory level (% inhibition). The method, then:
as §1, §2, §6, §3, §7, §4, §5

Assay [4] addresses Human JAK3 (Homo sapiens (Human), UniProt P52333). Put plainly: In vitro kinase inhibition test, JAK3 (33P-ATP filter scintillation). The conditions noted are these: compound at 1 uM; read-out: JAK3 kinase-phosphorylation inhibitory level (% inhibition). The method, then: as §1, §2, §6, §3, §7, §4, §5

Human TYK2, sequence (P29597 whole entry): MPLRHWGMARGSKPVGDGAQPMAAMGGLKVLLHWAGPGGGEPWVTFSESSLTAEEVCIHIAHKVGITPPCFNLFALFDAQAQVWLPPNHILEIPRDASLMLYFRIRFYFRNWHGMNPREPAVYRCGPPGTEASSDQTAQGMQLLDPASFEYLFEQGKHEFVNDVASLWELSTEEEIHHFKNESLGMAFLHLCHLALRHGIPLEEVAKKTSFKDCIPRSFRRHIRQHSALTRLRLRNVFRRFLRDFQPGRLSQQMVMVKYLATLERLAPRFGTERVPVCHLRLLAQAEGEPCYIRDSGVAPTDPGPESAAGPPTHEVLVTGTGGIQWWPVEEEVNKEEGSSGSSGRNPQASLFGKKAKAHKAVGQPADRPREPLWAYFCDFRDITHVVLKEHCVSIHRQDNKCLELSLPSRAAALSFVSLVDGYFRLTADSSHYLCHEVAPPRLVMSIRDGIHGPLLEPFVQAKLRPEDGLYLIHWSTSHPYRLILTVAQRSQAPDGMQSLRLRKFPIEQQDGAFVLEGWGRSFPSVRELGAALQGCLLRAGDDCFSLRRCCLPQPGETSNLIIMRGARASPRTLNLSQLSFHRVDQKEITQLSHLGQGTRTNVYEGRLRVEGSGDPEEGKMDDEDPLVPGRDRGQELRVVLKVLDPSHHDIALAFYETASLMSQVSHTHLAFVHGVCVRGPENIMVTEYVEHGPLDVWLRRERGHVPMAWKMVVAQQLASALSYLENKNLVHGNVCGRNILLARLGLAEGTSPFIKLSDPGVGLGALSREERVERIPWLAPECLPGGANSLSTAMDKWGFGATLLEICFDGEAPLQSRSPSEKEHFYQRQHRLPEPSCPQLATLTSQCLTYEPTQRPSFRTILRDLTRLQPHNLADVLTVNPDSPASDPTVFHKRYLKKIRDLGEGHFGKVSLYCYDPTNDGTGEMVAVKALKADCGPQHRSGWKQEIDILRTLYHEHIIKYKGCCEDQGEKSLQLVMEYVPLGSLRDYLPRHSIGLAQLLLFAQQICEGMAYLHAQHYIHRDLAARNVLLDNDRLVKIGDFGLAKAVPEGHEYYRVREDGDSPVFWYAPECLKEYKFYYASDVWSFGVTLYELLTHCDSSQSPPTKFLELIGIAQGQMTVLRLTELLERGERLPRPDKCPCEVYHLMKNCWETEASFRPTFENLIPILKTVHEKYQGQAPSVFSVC
Human JAK3, sequence (P52333 whole entry): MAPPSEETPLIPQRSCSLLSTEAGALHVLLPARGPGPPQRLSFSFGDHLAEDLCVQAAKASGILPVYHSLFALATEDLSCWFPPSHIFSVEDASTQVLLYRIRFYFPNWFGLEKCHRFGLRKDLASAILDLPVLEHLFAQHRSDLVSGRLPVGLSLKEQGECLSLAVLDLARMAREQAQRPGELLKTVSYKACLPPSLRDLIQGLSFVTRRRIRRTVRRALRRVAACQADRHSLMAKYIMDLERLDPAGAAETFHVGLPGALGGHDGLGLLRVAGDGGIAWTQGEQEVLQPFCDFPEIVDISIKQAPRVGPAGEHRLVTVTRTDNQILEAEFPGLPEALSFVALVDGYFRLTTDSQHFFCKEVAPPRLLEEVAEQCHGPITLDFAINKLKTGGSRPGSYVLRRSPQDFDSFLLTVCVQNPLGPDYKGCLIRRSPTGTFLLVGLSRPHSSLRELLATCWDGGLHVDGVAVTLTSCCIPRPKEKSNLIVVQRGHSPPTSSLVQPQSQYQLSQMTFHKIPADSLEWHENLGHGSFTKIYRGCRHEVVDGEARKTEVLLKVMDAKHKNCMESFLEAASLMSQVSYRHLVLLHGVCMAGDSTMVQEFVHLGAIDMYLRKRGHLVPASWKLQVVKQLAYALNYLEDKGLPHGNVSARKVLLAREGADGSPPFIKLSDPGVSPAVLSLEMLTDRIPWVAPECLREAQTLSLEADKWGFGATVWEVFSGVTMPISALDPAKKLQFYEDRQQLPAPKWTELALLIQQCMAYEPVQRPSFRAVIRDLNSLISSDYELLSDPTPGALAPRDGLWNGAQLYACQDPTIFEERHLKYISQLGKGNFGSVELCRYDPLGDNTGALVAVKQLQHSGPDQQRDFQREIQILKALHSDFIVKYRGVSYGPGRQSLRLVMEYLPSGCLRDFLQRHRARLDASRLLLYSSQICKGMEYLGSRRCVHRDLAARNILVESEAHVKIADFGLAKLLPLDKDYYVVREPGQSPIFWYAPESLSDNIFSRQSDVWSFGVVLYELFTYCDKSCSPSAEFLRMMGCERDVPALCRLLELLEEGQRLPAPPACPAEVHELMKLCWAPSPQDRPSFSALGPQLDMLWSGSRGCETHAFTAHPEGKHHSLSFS
Human JAK2, sequence (O60674 whole entry): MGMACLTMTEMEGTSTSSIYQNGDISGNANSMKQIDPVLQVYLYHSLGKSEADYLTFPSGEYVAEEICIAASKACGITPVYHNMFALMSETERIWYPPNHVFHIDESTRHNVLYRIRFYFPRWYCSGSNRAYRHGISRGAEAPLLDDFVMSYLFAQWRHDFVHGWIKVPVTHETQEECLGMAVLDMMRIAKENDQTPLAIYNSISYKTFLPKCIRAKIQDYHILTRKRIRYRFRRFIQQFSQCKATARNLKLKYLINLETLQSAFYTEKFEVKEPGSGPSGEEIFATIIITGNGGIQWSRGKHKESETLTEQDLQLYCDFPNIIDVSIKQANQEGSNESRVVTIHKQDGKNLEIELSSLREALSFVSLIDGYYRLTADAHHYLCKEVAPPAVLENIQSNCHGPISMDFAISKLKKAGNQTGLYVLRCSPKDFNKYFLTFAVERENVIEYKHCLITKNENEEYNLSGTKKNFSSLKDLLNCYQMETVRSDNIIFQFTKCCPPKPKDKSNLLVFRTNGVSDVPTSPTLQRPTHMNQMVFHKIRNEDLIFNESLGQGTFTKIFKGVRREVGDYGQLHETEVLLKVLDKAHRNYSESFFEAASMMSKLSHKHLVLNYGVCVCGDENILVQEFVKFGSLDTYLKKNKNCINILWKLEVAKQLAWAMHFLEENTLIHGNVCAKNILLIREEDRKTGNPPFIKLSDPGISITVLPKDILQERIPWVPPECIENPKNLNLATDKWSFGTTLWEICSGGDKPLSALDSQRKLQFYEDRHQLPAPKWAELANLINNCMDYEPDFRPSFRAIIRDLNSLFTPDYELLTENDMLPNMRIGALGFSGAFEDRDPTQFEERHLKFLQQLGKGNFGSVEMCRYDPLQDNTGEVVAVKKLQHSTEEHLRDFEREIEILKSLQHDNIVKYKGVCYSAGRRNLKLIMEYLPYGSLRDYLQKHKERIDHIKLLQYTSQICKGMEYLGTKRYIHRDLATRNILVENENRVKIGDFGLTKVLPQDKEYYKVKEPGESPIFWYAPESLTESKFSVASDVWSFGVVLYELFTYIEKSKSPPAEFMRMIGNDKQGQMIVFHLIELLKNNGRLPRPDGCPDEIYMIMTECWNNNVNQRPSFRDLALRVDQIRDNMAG

Regarding `CCCCNC(=O)N1C[C@H](N(C)c2ncnc3[nH]ccc23)C2(CC2)C1` [Example 21, (R)-N-butyl-7-(methyl(7H-pyrrolo[2,3-d]pyrimidin-4-yl)amino)-5-azaspiro[2.4]heptane-5-carboxamide], the inhibition – broadly, the relative decrease from the control value, in per cent – at 1 µM is 94% in assay [1], -3% in assay [2], 30% in assay [3] and 31% in assay [4].
The corresponding values for `CN(c1ncnc2[nH]ccc12)[C@H]1CN(C(=O)NC2CCCCC2)CC12CC2` [Example 22, (R)-N-cyclohexyl-7-(methyl(7H-pyrrolo[2,3-d]pyrimidin-4-yl)amino)-5-azaspiro[2.4]heptane-5-carboxamide] are 90%, -5%, 15% and 16%.
The corresponding values for `CN(c1ncnc2[nH]ccc12)[C@H]1CN(C(=O)Nc2ccccc2)CC12CC2` [Example 23, (R)-7-(methyl(7H-pyrrolo[2,3-d]pyrimidin-4-yl)amino)-N-phenyl-5-azaspiro[2.4]heptane-5-carboxamide] are 98%, 52%, 78% and 50%.
The corresponding values for `CN(c1ncnc2[nH]ccc12)[C@H]1CN(C(=O)Nc2ccc(F)cc2)CC12CC2` [Example 24, (R)-N-(4-fluorophenyl)-7-(methyl(7H-pyrrolo[2,3-d]pyrimidin-4-yl)amino)-5-azaspiro[2.4]heptane-5-carboxamide] are 94%, 6%, 47% and 48%.
As for `CN(c1ncnc2[nH]ccc12)[C@H]1CN(C(=O)Nc2ccc(Cl)cc2Cl)CC12CC2` [Example 25, (R)-N-(2,4-dichlorophenyl)-7-(methyl(7H-pyrrolo[2,3-d]pyrimidin-4-yl)amino)-5-azaspiro[2.4]heptane-5-carboxamide], the inhibition at 1 µM came to 88% in assay [1], 5% in assay [2], 48% in assay [3] and 25% in assay [4].
In the same order, the values of `CN(c1ncnc2[nH]ccc12)[C@H]1CN(C(=O)Nc2ccc(Cl)c(Cl)c2)CC12CC2` [Example 26, (R)-N-(3,4-dichlorophenyl)-7-(methyl(7H-pyrrolo[2,3-d]pyrimidin-4-yl)amino)-5-azaspiro[2.4]heptane-5-carboxamide] are 94%, 13%, 42% and 51%.
The corresponding values for `CN(c1ncnc2[nH]ccc12)[C@H]1CN(C(=O)Nc2cc(Cl)ccc2Cl)CC12CC2` [Example 27, (R)-N-(2,5-dichlorophenyl)-7-(methyl(7H-pyrrolo[2,3-d]pyrimidin-4-yl)amino)-5-azaspiro[2.4]heptane-5-carboxamide] are 91%, -1%, 27% and 17%.
Consider `CN(c1ncnc2[nH]ccc12)[C@H]1CN(C(=O)Nc2cccc(Cl)c2Cl)CC12CC2` [Example 28, (R)-N-(2,3-dichlorophenyl)-7-(methyl(7H-pyrrolo[2,3-d]pyrimidin-4-yl)amino)-5-azaspiro[2.4]heptane-5-carboxamide], for which the inhibition at 1 µM in assay [1] came to 91%; in assay [2], 23%; in assay [3], 39%; in assay [4], 40%.
For the compound `Cc1ccc(NC(=O)N2C[C@H](N(C)c3ncnc4[nH]ccc34)C3(CC3)C2)cc1Cl` [Example 29, (R)-N-(3-chloro-4-methylphenyl)-7-(methyl(7H-pyrrolo[2,3-d]pyrimidin-4-yl)amino)-5-azaspiro[2.4]heptane-5-carboxamide], the inhibition at 1 µM in assay [1] was determined as 92%; in assay [2], 19%; in assay [3] it was 43%; in assay [4], 39%.
In the same order, the values of `CN(c1ncnc2[nH]ccc12)[C@H]1CN(C(=O)Nc2ccccc2-c2ccccc2)CC12CC2` [Example 30, (R)-N-([1,1′-biphenyl]-2-yl)-7-(methyl(7H-pyrrolo[2,3-d]pyrimidin-4-yl)amino)-5-azaspiro[2.4]heptane-5-carboxamide] are 80%, -11%, 27% and 14%.
In the same order, the values of `CN(c1ncnc2[nH]ccc12)[C@H]1CN(C(=S)Nc2cc(C(F)(F)F)cc(C(F)(F)F)c2)CC12CC2` [Example 31, (R)-N-(3,5-bis(trifluoromethyl)phenyl)-7-(methyl(7H-pyrrolo[2,3-d]pyrimidin-4-yl)amino)-5-azaspiro[2.4]heptane-5-carbothioamide] are 62%, -26%, 1% and 13%.
The corresponding values for `CN(c1ncnc2[nH]ccc12)[C@H]1CN(S(=O)(=O)C(F)(F)F)CC12CC2` [Example 32, (R)-N-methyl-N-(5-((trifluoromethyl)sulfonyl)-5-azaspiro[2.4]heptan-7-yl)-7H-pyrrolo[2,3-d]pyrimidin-4-amine] are 97%, 68%, 86% and 59%.
On to `CCS(=O)(=O)N1C[C@H](N(C)c2ncnc3[nH]ccc23)C2(CC2)C1` [Example 33, (R)-N-(5-(ethylsulfonyl)-5-azaspiro[2.4]heptan-7-yl)-N-methyl-7H-pyrrolo[2,3-d]pyrimidin-4-amine], for which the inhibition at 1 µM was found to be 98% in assay [1], 84% in assay [2], 88% in assay [3] and 70% in assay [4].
In the same order, the values of `CC(C)S(=O)(=O)N1C[C@H](N(C)c2ncnc3[nH]ccc23)C2(CC2)C1` [Example 34, (R)-N-(5-(isopropylsulfonyl)-5-azaspiro[2.4]heptan-7-yl)-N-methyl-7H-pyrrolo[2,3-d]pyrimidin-4-amine] are 97%, 76%, 72% and 56%.
In the same order, the values of `CCCS(=O)(=O)N1C[C@H](N(C)c2ncnc3[nH]ccc23)C2(CC2)C1` [Example 35, (R)-N-methyl-N-(5-(propylsulfonyl)-5-azaspiro[2.4]heptan-7-yl)-7H-pyrrolo[2,3-d]pyrimidin-4-amine] are 99%, 78%, 89% and 77%.
In the same order, the values of `CN(c1ncnc2[nH]ccc12)[C@H]1CN(S(=O)(=O)c2ccccc2)CC12CC2` [Example 36, (R)-N-methyl-N-(5-(phenylsulfonyl)-5-azaspiro[2.4]heptan-7-yl)-7H-pyrrolo[2,3-d]pyrimidin-4-amine] are 97%, 90%, 91% and 52%.
As for `CN(c1ncnc2[nH]ccc12)[C@H]1CN(S(=O)(=O)c2ccccc2F)CC12CC2` [Example 37, (R)-N-(5-((2-fluorophenyl)sulfonyl)-5-azaspiro[2.4]heptan-7-yl)-N-methyl-7H-pyrrolo[2,3-d]pyrimidin-4-amine], the inhibition at 1 µM in assay [1] was found to be 98%; in assay [2], 84%; in assay [3], 90%; in assay [4], 61%.
The corresponding values for `CN(c1ncnc2[nH]ccc12)[C@H]1CN(S(=O)(=O)c2cccc(F)c2)CC12CC2` [Example 38, (R)-N-(5-((3-fluorophenyl)sulfonyl)-5-azaspiro[2.4]heptan-7-yl)-N-methyl-7H-pyrrolo[2,3-d]pyrimidin-4-amine] are 100%, 97%, 97% and 84%.
